According to patent publication US10563263B2, “Genetic polymorphisms associated with statin response and cardiovascular diseases, methods of detection and uses thereof” (CELERA CORPORATION, priority 2010, dated 2020):

Tested on: CVD (CHD or stroke)
Experiment: WOSCOPS: SNP by pravastatin treatment interaction, logistic regression (synergy index), CVD endpoint
Format: in vivo, human
Conditions: for OR: WOSCOPS; for WOSCOPS OR: endpoint CVD
Text: CARE was a secondary prevention trial and WOSCOPS was a primary prevention trial.
The CHD endpoint was defined in the analyses herein of CARE as a composite endpoint of fatal CHD, definite non-fatal MI, or revascularization, and was defined in the analyses herein of WOSCOPS as a composite endpoint of death from CHD, nonfatal MI, or revascularization. In both the CARE and WOSCOPS analyses herein, the CVD endpoint was defined as a composite endpoint of CHD or stroke. […] Revascularization, which can include percutaneous transluminal coronary angioplasty (PTCA), stent placement, and coronary artery bypass graft (CABG), are medical interventions that indicate the presence of CHD.
Cohort and case-only study designs were used to identify SNPs associated with response to statin treatment.
For each SNP, a logistic regression model having treatment status as the dependent variable and SNP as the independent predictor variable was performed, with terms for age, sex and race included in the model as covariates. The anti-log of the regression coefficient corresponding to the SNP is an estimate of the synergy index (SI) (Davis et al., “Imputing gene-treatment interactions when the genotype distribution is unknown using case-only and putative placebo analyses-a new method for the Genetics of Hypertension Associated Treatment (GenHAT) study”, Statistics in Medicine 23: (2004), pages 2413-2427). The SI is a ratio of odds ratios: for example in the CARE and WOSCOPS studies, the SI represents the factor by which the odds-ratio of statin treatment, compared with placebo, among major homozygous individuals is multiplied by in order to obtain the odds-ratio of treatment vs. placebo among heterozygous individuals; and multiplied by a second time to obtain the odds-ratio of treatment vs. placebo in minor homozygous individuals. […] In a randomized clinical trial, genotype and treatment are independent by design.

Molecule `CC[C@H](C)C(=O)O[C@H]1C[C@H](O)C=C2C=C[C@H](C)[C@H](CC[C@@H](O)C[C@@H](O)CC(=O)O)[C@H]21` [Pravastatin, pravastatin] has an OR (rs1884902 allele C REC Imputed) of 1.796, an OR (rs1913201 allele G ADD Imputed) of 0.7632 and an OR (rs1913201 allele G DOM Imputed) of 0.5772. For the same molecule, the OR (rs1944279 allele A ADD Imputed) was 1.444, the OR (rs1987179 allele T DOM Imputed) was 0.6667 and the OR (rs1990023 allele T DOM Imputed) was 0.6024. It also gave an OR (rs2016194 allele G DOM Imputed) of 0.602, an OR (rs2024789 allele C ADD Imputed) of 0.7464 and an OR (rs2024902 allele A ADD Imputed) of 2.395. The OR (rs2024902 allele A DOM Imputed) was 2.659, the OR (rs2025107 allele A ADD Imputed) was 2.387 and the OR (rs2025107 allele A DOM Imputed) was 2.904. It also gave an OR (rs2025108 allele T ADD Imputed) of 2.387, an OR (rs2025108 allele T DOM Imputed) of 2.904 and an OR (rs2062448 allele T ADD Imputed) of 0.4148. For the same molecule, the OR (rs2062448 allele T DOM Imputed) was 0.4153, the OR (rs2063591 allele C ADD Imputed) was 0.7711 and the OR (rs2063591 allele C DOM Imputed) was 0.5884. For the same molecule, the OR (rs2065604 allele C DOM Imputed) was 0.4711, the OR (rs2066238 allele T DOM Imputed) was 0.6821 and the OR (rs2068051 allele G ADD Imputed) was 0.6426. For the same molecule, the OR (rs2095586 allele A DOM Imputed) was 1.351, the OR (rs2108426 allele C DOM Imputed) was 0.5994 and the OR (rs2110664 allele A DOM Imputed) was 1.697. The OR (rs2132242 allele A DOM Imputed) was 0.6291, the OR (rs2151644 allele T DOM Imputed) was 0.4711 and the OR (rs2158958 allele A DOM Imputed) was 0.6021. The OR (rs2158961 allele G DOM Imputed) was 0.6113, the OR (rs2164099 allele G ADD Imputed) was 1.424 and the OR (rs2173254 allele G REC Imputed) was 0.3756. The OR (rs2188079 allele C ADD Imputed) was 1.5, the OR (rs2190304 allele G REC Imputed) was 0.628 and the OR (rs2190597 allele T DOM Imputed) was 0.7825. For the same molecule, the OR (rs2190598 allele T DOM Imputed) was 0.6021, the OR (rs2190600 allele A DOM Imputed) was 0.6022 and the OR (rs2218084 allele T REC Imputed) was 4.673. It also gave an OR (rs2290193, rec, Caseonly, CVD, pravastatin vs placebo) of 0.35, an OR (rs2626130, add, Caseonly, CVD, pravastatin vs placebo) of 1.37 and an OR (rs4289236, add, Caseonly, CVD, pravastatin vs placebo) of 1.49. The OR (rs4611134, rec, Caseonly, CVD, pravastatin vs placebo) was 1.56, the OR (rs4643388, add, Caseonly, CVD, pravastatin vs placebo) was 1.38 and the OR (rs6911817, add, Caseonly, CVD, pravastatin vs placebo) was 5.32. It also gave an OR (rs7327364, dom, Caseonly, CVD, pravastatin vs placebo) of 0.64, an OR (rs7497613, rec, Caseonly, CVD, pravastatin vs placebo) of 0.43 and an OR (rs7767024, add, Caseonly, CVD, pravastatin vs placebo) of 1.69. For the same molecule, the OR (rs8051893, dom, Caseonly, CVD, pravastatin vs placebo) was 0.63, the OR (rs9658127, add, Caseonly, CVD, pravastatin vs placebo) was 5.32 and the OR (rs10088524, dom, Caseonly, CVD, pravastatin vs placebo) was 1.80. It also gave an OR (rs11925875, dom, Caseonly, CVD, pravastatin vs placebo) of 0.57, an OR (rs17076972 allele C REC Imputed) of 1.85 and an OR (rs17189710 allele T ADD Imputed) of 1.429. For the same molecule, the OR (rs17196143 allele A ADD Imputed) was 1.543, the OR (rs17353809 allele G ADD Imputed) was 1.616 and the OR (rs17446418 allele G DOM Imputed) was 0.6878. The OR (rs17530747 allele T DOM Imputed) was 0.6878, the OR (rs17546598, dom, Caseonly, CVD, pravastatin vs placebo) was 2.07 and the OR (rs17604285 allele C ADD Imputed) was 0.4148. The OR (rs17604285 allele C DOM Imputed) was 0.4153, the OR (rs17662322 allele T DOM Imputed) was 0.6835 and the OR (rs17769826 allele T ADD Imputed) was 1.616. For the same molecule, the OR (rs17821641 allele T ADD Imputed) was 1.571, the “WOSCOPS OR” value (rs151806, source cohort, model dom) was 0.67 and the “WOSCOPS OR” value (rs205279, source Caseonly, model add) was 1.60. The “WOSCOPS OR” value (rs312929, source cohort, model add) was 0.79, the “WOSCOPS OR” value (rs316720, source cohort, model add) was 0.78 and the “WOSCOPS OR” value (rs354342, source Caseonly, model add) was 0.62. For the same molecule, the “WOSCOPS OR” value (rs610118, source Caseonly, model dom) was 0.62, the “WOSCOPS OR” value (rs624460, source cohort, model add) was 0.74 and the “WOSCOPS OR” value (rs669684, source cohort, model add) was 0.77. The “WOSCOPS OR” value (rs945020, source cohort, model dom) was 0.72, the “WOSCOPS OR” value (rs1035618, source Caseonly, model add) was 1.48 and the “WOSCOPS OR” value (rs1051344, source cohort, model dom) was 0.64. The “WOSCOPS OR” value (rs1167245, source Caseonly, model dom) was 0.51, the “WOSCOPS OR” value (rs1349282, source cohort, model dom) was 0.55 and the “WOSCOPS OR” value (rs1861326, source Caseonly, model dom) was 0.67. The “WOSCOPS OR” value (rs2023650, source Caseonly, model add) was 0.62, the “WOSCOPS OR” value (rs2145540, source Caseonly, model dom) was 0.70 and the “WOSCOPS OR” value (rs2157673, source Caseonly, model add) was 1.56. The “WOSCOPS OR” value (rs2231496, source Caseonly, model add) was 0.67, the “WOSCOPS OR” value (rs2268650, source Caseonly, model dom) was 0.71 and the “WOSCOPS OR” value (rs2376764, source Caseonly, model rec) was 0.48. For the same molecule, the “WOSCOPS OR” value (rs2492367, source cohort, model add) was 0.68, the “WOSCOPS OR” value (rs2495295, source Caseonly, model dom) was 0.66 and the “WOSCOPS OR” value (rs2534752, source cohort, model dom) was 1.74. For the same molecule, the “WOSCOPS OR” value (rs2695026, source Caseonly, model add) was 0.61, the “WOSCOPS OR” value (rs2793086, source Caseonly, model add) was 0.72 and the “WOSCOPS OR” value (rs2843171, source Caseonly, model dom) was 0.61. For the same molecule, the “WOSCOPS OR” value (rs3213616, source cohort, model add) was 0.62, the “WOSCOPS OR” value (rs3798544, source Caseonly, model dom) was 1.78 and the “WOSCOPS OR” value (rs4243071, source Caseonly, model rec) was 0.41. The “WOSCOPS OR” value (rs4626316, source cohort, model dom) was 0.38, the “WOSCOPS OR” value (rs4866354, source Caseonly, model dom) was 0.31 and the “WOSCOPS OR” value (rs4869033, source Caseonly, model rec) was 0.47. For the same molecule, the “WOSCOPS OR” value (rs4986146, source cohort, model add) was 0.66, the “WOSCOPS OR” value (rs4993917, source Caseonly, model dom) was 0.67 and the “WOSCOPS OR” value (rs5017584, source Caseonly, model rec) was 1.98. For the same molecule, the “WOSCOPS OR” value (rs5021480, source Caseonly, model rec) was 1.87, the “WOSCOPS OR” value (rs7179134, source cohort, model rec) was 3.50 and the “WOSCOPS OR” value (rs7612715, source cohort, model add) was 0.55. For the same molecule, the “WOSCOPS OR” value (rs7671659, source cohort, model dom) was 1.43, the “WOSCOPS OR” value (rs9292827, source Caseonly, model dom) was 0.27 and the “WOSCOPS OR” value (rs9375683, source cohort, model dom) was 1.31. For the same molecule, the “WOSCOPS OR” value (rs9487284, source cohort, model dom) was 0.70, the “WOSCOPS OR” value (rs9896077, source cohort, model dom) was 0.71 and the “WOSCOPS OR” value (rs10088505, source Caseonly, model dom) was 1.78. For the same molecule, the “WOSCOPS OR” value (rs10444402, source Caseonly, model add) was 0.65, the “WOSCOPS OR” value (rs10494924, source Caseonly, model dom) was 0.68 and the “WOSCOPS OR” value (rs10517923, source Caseonly, model rec) was 1.60. For the same molecule, the “WOSCOPS OR” value (rs10849442, source Caseonly, model rec) was 0.59, the “WOSCOPS OR” value (rs10889215, source cohort, model add) was 1.95 and the “WOSCOPS OR” value (rs11076320, source Caseonly, model dom) was 0.68. For the same molecule, the “WOSCOPS OR” value (rs11610993, source Caseonly, model dom) was 0.49, the “WOSCOPS OR” value (rs12155847, source Caseonly, model dom) was 1.61 and the “WOSCOPS OR” value (rs17347854, source Caseonly, model dom) was 0.62. The “WOSCOPS OR” value (rs17740227, source Caseonly, model dom) was 1.53, the “WOSCOPS OR” value (rs33910446, source Caseonly, model rec) was 2.23 and the “WOSCOPS OR” value (rs72746987, source Caseonly, model dom) was 0.34.
